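96-well plates; 48 h exposure; 5 concentrations. Endpoints by linear interpolation between flanking doses. Not reached: highest tested concentration assigned. TGI marks complete inhibition of growth.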
Experiments:
Assay in all cases: NCI anticancer screen, dose series, 48 h
DU-145 prostate = system: DU-145 prostate
HOP-62 NSCLC = system: HOP-62 NSCLC
KM12 colon = system: KM12 colon
MDA-MB-231 breast = system: MDA-MB-231 breast
MDA-MB-435 = system: MDA-MB-435
MDA-N = system: MDA-N
MOLT-4 leukemia = system: MOLT-4 leukemia
NCI-H226 lung = system: NCI-H226 lung
NCI-H23 lung = system: NCI-H23 lung
NCI-H522 lung = system: NCI-H522 lung
RPMI-8226 leukemia = system: RPMI-8226 leukemia
SK-MEL-28 melanoma = system: SK-MEL-28 melanoma
SK-OV-3 ovarian = system: SK-OV-3 ovarian
SNB-19 CNS = system: SNB-19 CNS
SNB-75 CNS = system: SNB-75 CNS
U251 CNS = system: U251 CNS
COLO 205 colon = system: COLO 205 colon
IGROV1 ovarian = system: IGROV1 ovarian
OVCAR-4 ovarian = system: OVCAR-4 ovarian
SW-620 colon = system: SW-620 colon

CCOC(=O)Cc1cnc(NC(NC(=O)CC)(C(F)(F)F)C(F)(F)F)s1
TGI (DU-145 prostate): > 100 µM | TGI (HOP-62 NSCLC): > 100 µM | TGI (KM12 colon): > 100 µM | TGI (MDA-MB-231 breast): > 100 µM | TGI (MDA-MB-435): > 100 µM | TGI (MDA-N): > 100 µM | TGI (MOLT-4 leukemia): > 100 µM | TGI (NCI-H226 lung): > 100 µM | TGI (NCI-H23 lung): > 100 µM | TGI (NCI-H522 lung): > 100 µM | TGI (RPMI-8226 leukemia): > 100 µM | TGI (SK-MEL-28 melanoma): > 100 µM | TGI (SK-OV-3 ovarian): > 100 µM | TGI (SNB-19 CNS): > 100 µM | TGI (SNB-75 CNS): > 100 µM | TGI (U251 CNS): > 100 µM

COc1ccc(N2C(=O)C3c4[nH]c5ccc(F)cc5c4C4CCC(C(C)(C)C)CC4C3C2=O)cc1 (stereo not drawn)
TGI (COLO 205 colon): > 10 µM | TGI (DU-145 prostate): > 10 µM | TGI (HOP-62 NSCLC): > 10 µM | TGI (IGROV1 ovarian): > 10 µM | TGI (KM12 colon): > 10 µM | TGI (MDA-MB-231 breast): > 10 µM | TGI (MDA-MB-435): > 10 µM | TGI (MDA-N): > 10 µM | TGI (MOLT-4 leukemia): > 10 µM | TGI (NCI-H226 lung): > 10 µM | TGI (NCI-H23 lung): > 10 µM | TGI (NCI-H522 lung): > 10 µM | TGI (OVCAR-4 ovarian): > 10 µM | TGI (RPMI-8226 leukemia): > 10 µM | TGI (SK-MEL-28 melanoma): > 10 µM | TGI (SK-OV-3 ovarian): > 10 µM | TGI (SNB-19 CNS): > 10 µM | TGI (SNB-75 CNS): 4.87 µM | TGI (SW-620 colon): > 10 µM | TGI (U251 CNS): > 10 µM

Cc1nc2[nH]ncn2c(=O)c1CCO
TGI (COLO 205 colon): > 10 µM | TGI (DU-145 prostate): > 10 µM | TGI (HOP-62 NSCLC): > 10 µM | TGI (IGROV1 ovarian): > 10 µM | TGI (MDA-MB-231 breast): > 10 µM | TGI (MDA-MB-435): > 10 µM | TGI (MDA-N): > 10 µM | TGI (MOLT-4 leukemia): > 10 µM | TGI (NCI-H226 lung): > 10 µM | TGI (NCI-H23 lung): > 10 µM | TGI (NCI-H522 lung): > 10 µM | TGI (OVCAR-4 ovarian): > 10 µM | TGI (RPMI-8226 leukemia): > 10 µM | TGI (SK-MEL-28 melanoma): 7.74 µM | TGI (SK-OV-3 ovarian): > 10 µM | TGI (SNB-19 CNS): > 10 µM | TGI (SNB-75 CNS): > 10 µM | TGI (SW-620 colon): > 10 µM | TGI (U251 CNS): > 10 µM

COc1ccc2c3c([nH]c2c1)CCN(Cc1ccccc1)C3
TGI (COLO 205 colon): 38.5 µM | TGI (DU-145 prostate): > 100 µM | TGI (HOP-62 NSCLC): 80.2 µM | TGI (IGROV1 ovarian): > 100 µM | TGI (KM12 colon): 70.5 µM | TGI (MDA-MB-231 breast): 66.4 µM | TGI (MDA-MB-435): 60.6 µM | TGI (MOLT-4 leukemia): 73.7 µM | TGI (NCI-H226 lung): 73.2 µM | TGI (NCI-H23 lung): > 100 µM | TGI (OVCAR-4 ovarian): > 100 µM | TGI (RPMI-8226 leukemia): 64.6 µM | TGI (SK-MEL-28 melanoma): 38 µM | TGI (SK-OV-3 ovarian): > 100 µM | TGI (SNB-19 CNS): 44.3 µM | TGI (SNB-75 CNS): > 100 µM | TGI (SW-620 colon): 51.7 µM | TGI (U251 CNS): 53.4 µM

— PubChem BioAssay (NCI)
